What was measured:
MC38 MDOTS = experiment: Live/dead (AO/PI) staining of MDOTS in 3D microfluidic culture; assay type: cell-based, murine; conditions: Cmpd1 1 μM + αPD-1, 5 days; not significant vs single-agent PD-1
Protocol: Fresh tumor specimens (murine and human patients) were received in media (DMEM) on ice and minced in a 10 cm dish (on ice) using sterile forceps and scalpel. Minced tumor was resuspended in DMEM (4.5 mM glucose, […] sodium pyruvate, 1:100 penicillin-streptomycin) (Coming CellGro, Manassas, VA)+10% FBS (Gemini Bio-Products, West Sacramento, CA), 100 U/mL collagenase type IV (Life Technologies, Carlsbad, CA), and 15 mM HEPES (Life Technologies, Carlsbad, CA), except for CT26 tumors that were prepared in RPMI. Samples were pelleted and resuspended in 10-20 mL media. Red blood cells were removed from visibly bloody samples using RBC Lysis Buffer (Boston Bio-Products, Ashland, MA). […]
Dual labeling was performed by loading microfluidic device with Nexcelom ViaStain™ (fluorescent cell viability dye) AO/PI Staining Solution (Nexcelom, CS2-0106). Following incubation with the dyes (20 minutes at room temperature in the dark), images were captured on a Nikon Eclipse 80i fluorescence microscope equipped with Z-stack (Prior) and CoolSNAP CCD camera (Roper Scientific). […] Live and dead cell quantitation was performed by measuring total cell area of each dye. […]

MC38 allograft = experiment: In vivo Compound 1 combination treatment, allograft; set-up: species or system B6 mice; conditions: Cmpd1 + αPD-L1; not significant vs single-agent PD-L1

N#Cc1cc(-c2ncnc(Nc3ccc(N4CCN(C5COC5)CC4)cc3)n2)ccc1OC1CCOCC1 [Compound 1, 5-(4-((4-(4-(oxetan-3-yl)piperazin-1-yl)phenyl)amino)-1,3,5-triazin-2-yl)-2-((tetrahydro-2H-pyran-4-yl)oxy)benzonitrile]
ex vivo killing of MC38 MDOTS, combination treatment (MC38 MDOTS): enhanced
in vivo survival, MC38 model, combination treatment (MC38 allograft): enhanced

— patent US12116636B2, “Methods for evaluating tumor cell spheroids using 3D microfluidic cell culture device” (Dana-Farber Cancer Institute, Inc., priority 2017, dated 2024)
